Results from US11773081B2, “Pharmaceutical composition for preventing or treating wound, comprising indirubin derivative as active ingredient” (CK Regeon Inc., priority 2018, dated 2023).
“Also recorded” adds a separate entry of the source.

Assays:
mouse acute wound = assay: Wound healing and collagen synthesis in mouse acute wound (Test Example 2); type: in vivo
Description: The wound healing-promoting effect of the indirubin derivatives prepared in Examples 1 and 2, the indirubin derivative of Comparative Example 1 (10) and EGF, known as an existing wound healing agent, as a positive control group was investigated through animal experiments.
The hair on the back of 7-week-old C3H mouse that entered the resting period was removed and a 1.5×1.5 cm^2 wound was made on the hair-removed region. 20 μL of a vehicle (10% DMSO, 45% ethanol, 18% propylene glycol, 27% water) and the indirubin derivative of Comparative Example 1 (10) were applied to a control group and a comparison group, respectively, once daily for 12 days. For the positive control group, 100 μM EGF was applied once daily for 12 days. For a first test group, 20 μL of the indirubin derivative of Example 2 (A3051) was applied once daily for 12 days. For a second test group, 20 μL of the indirubin derivative of Example 1 (A3334) was applied once daily for 12 days.
The tissue of each experimental mouse was fixed by immersing in 4% paraformaldehyde, embedded in paraffin and then sliced into 4 μm thickness. The sliced tissue was deparaffinized, rehydrated and then stained with Masson's trichrome and Picrosirius red for evaluation of the degree of collagen synthesis. For Masson's trichrome staining, a slide was placed in Weigert's iron hematoxylin solution for 10 minutes and in Biebrich scarlet-acid fuchsin and aniline blue for 5 minutes each. For Picrosirius red staining, a slide was placed in Weigert's solution for 8 minutes and in Picrosirius red for 1 hour.

diabetic wound [1] = assay: Effect of treating diabetic wound (Test Example 9); type: in vivo; conditions: diabetes-induced mouse
Description: (§1) 3-week-old male C57BL/6N mice (Koatech, South Korea) were used. After accustoming the mice for a week to normal feed, high-fat diet (Product Data—D12492; 60% kcal, hereinafter referred to as HFD) was given for 4 weeks. Then, a diabetes-induced animal model was prepared by intraperitoneally injecting 40 mg/kg streptozocin (Sigma) once daily for a week. The mice were kept in cages maintained at constant temperature (22±2° C.) and relative humidity (40-60%) with light/dark cycles of 12/12 hours.
6 mice of the normal control group and 6 mice per test group of the diabetes-induced animal model of Test Example 7 were prepared. The hair on the back was removed and a 0.8×0.8 cm^2 wound was made on the hair-removed region.
For the normal control group, only 20 μL of an emulsion solution (Kollipore®EL:Tween 80:PEG 400 at a mixing weight ratio of 80:6:14) was applied to the wound site once daily for 14 days. For the negative control group, only 20 μL of the emulsion solution (Kollipore®EL:Tween 80:PEG 400 at a mixing weight ratio of 80:6:14) was applied to the wound site once daily for 14 days. For the positive control group (VPA), 20 μL of a composition prepared by mixing 500 mM VPA in an emulsion solution was applied to the wound site once daily for 14 days.
For the first test group, 20 μL of A3334 (Example 1) was applied to the wound site once daily for 14 days. For the second test group, 20 μL of A3051 (Example 2) was applied to the wound site once daily for 14 days. Then, the wound site of each group was photographed and the wound area was measured (FIG. 14). On day 14, after euthanizing the mouse with carbon dioxide, the wound site tissue was harvested and the histological structure was observed.
Specifically, the wound site tissue obtained from the normal control group, the negative control group, the positive control group or the first or second test group was fixed by immersing in 4% paraformaldehyde, embedded in paraffin and then sliced into 4 μm thickness. The sliced tissue was deparaffinized, rehydrated and then stained with hematoxylin (purple) and eosin (pink) for observation of histological structure.
Specifically, the wound site tissue obtained from the normal control group, the negative control group, the positive control group or the first or second test group was fixed by immersing in 4% paraformaldehyde, embedded in paraffin and then sliced into 4 μm thickness. The sliced tissue was deparaffinized, rehydrated and then stained with Van Gieson's stain and Masson's trichrome for observation of histological structure. For the Van Gieson's staining, the sliced tissue was immersed in Weigert's solution for 10 minutes and in picrofuchsin solution for 2 minutes. For the Masson's trichrome staining, the sliced tissue was immersed in Weigert's iron hematoxylin solution for 10 minutes and in Biebrich scarlet-acid fuchsin and Aniline blue for 5 minutes each.
Specifically, the wound site tissue obtained from the normal control group, the negative control group, the positive control group or the first and second test groups was fixed by immersing in 4% paraformaldehyde and angiogenesis was observed.

diabetic wound [2] = assay: Wound healing effect in diabetic wound animal model (Test Example 8); type: in vivo, mouse
Description: as §1
6 mice of the normal control group and 6 mice per test group of the diabetes-induced animal model of Test Example 7 were prepared. The hair on the back was removed and a 1.5×1.5 cm^2 wound was made on the hair-removed region.
For the normal control group, only 20 μL of an emulsion solution (Kollipore®EL:Tween 80:PEG 400 at a mixing weight ratio of 80:6:14) was applied to the wound site once daily for 14 days. For the negative control group, only 20 μL of the emulsion solution (Kollipore®EL:Tween 80:PEG 400 at a mixing weight ratio of 80:6:14) was applied to the wound site once daily for 14 days. For the test group, 20 μL of A3334 (Example 1) was applied to the wound site once daily for 14 days. Then, the wound site of the animal model was photographed and the wound area was measured on days 0, 1, 3, 7, 10 and 14 (FIG. 10). On day 14, after euthanizing the mouse with carbon dioxide, the wound site tissue was harvested and the histological structure was observed.
A3334 (Example 1) was prepared by preparing an emulsion solution by mixing Kollipore®EL:Tween 80:PEG 400 at a mixing weight ratio of 80:6:14 and then dissolving the A3334 indirubin derivative synthesized in Example 1 to a concentration of 0.5 mM.
The wound closure rate (%) was calculated according to Equation 1. Wound closure rate (%)=[initial wound area on day 0−wound area on measurement day]/[initial wound area on day 0]×100 [Equation 1] […]

[3] = C3H mouse acute wound, once daily for 12 days, vs EGF

Q: `COc1ccc2c(c1)/C(=C1/Nc3ccccc3/C1=N\O)C(=O)N2` [Example 1, 5-methoxylindirubin-3′-oxime] was tested. Which “quantity of collagen (Masson's trichrome, Picrosirius red, van Gieson's stain)” value (mouse acute wound; C3H mouse acute wound tissue, vs control group, Comparative Example 1, positive control group) did it give?
A: The value was “remarkably increases the quantity of collagen”.

Q: What about the “re-epithelialization of acute wound” value (mouse acute wound; [3]) of the same compound?
A: The value was “re-epithelialized comparably to or faster than the positive control group EGF”.

Q: What about the “scar-reducing effect, repair of the epidermal layer of skin” value (mouse acute wound; [3]) of the same compound?
A: The value was “repairing the epidermal layer of skin without remaining scars”.

Q: And the “wound repair effect as compared to the positive control group EGF” value (mouse acute wound; C3H mouse, 1.5×1.5 cm^2 wound, 20 μL once daily for 12 days, EGF 100 μM, listed as A3334)?
A: The value was “slightly superior wound repair effect; also recorded: slightly better wound repair effect”.

Q: What about the “angiogenesis around the wound site” value (diabetic wound [1]) of the same compound?
A: The value was “increased angiogenesis”.

Q: What about the “healing of the wound site” value (diabetic wound [1]; 0.8×0.8 cm^2 wound, 20 μL once daily for 14 days, VPA 500 mM) of the same compound?
A: Its value is “healing of the wound site was promoted similarly to the normal control group”.

Q: And the “re-epithelialization (H&E)” value (diabetic wound [1]; 14 days)?
A: Its value is “re-epithelialization occurred quickly”.

Q: And the “collagen synthesis (Van Gieson's stain, Masson's trichrome)” value (diabetic wound [1]; vs normal, negative and positive control group (VPA))?
A: Its value is “increased collagen synthesis”.

Q: What about the “healing of the wound site (wound closure rate)” value (diabetic wound [2]; diabetes-induced C57BL/6N mouse, 1.5×1.5 cm^2 wound, 20 μL of 0.5 mM once daily for 14 days) of the same compound?
A: Its value is “healing of the wound site was promoted similarly to the normal control group”.

Q: What about the “re-epithelialization (H&E)” value (diabetic wound [2]; diabetes-induced mouse, 14 days) of the same compound?
A: The value was “fast re-epithelialization”.

Q: And the “collagen synthesis (Van Gieson's stain, Picrosirius red)” value (diabetic wound [2]; diabetes-induced mouse, vs normal and negative control group)?
A: The value was “increased collagen synthesis”.
